Source: ChEMBL document CHEMBL1152393, “Dopamine D(3) receptor antagonists: The quest for a potentially selective PET ligand. Part two: Lead optimization” (Bioorg Med Chem Lett, 2009)

Each compound was assayed on Liver microsomes. Details: human.
`N#Cc1cc(N2CCN(CCN3CCC(C(F)(F)F)CC3)C2=O)ccc1F` showed a CL of 9.1 mL/min/g.
`O=C1N(CCN2CCC(C(F)(F)F)CC2)CCN1c1cccc(Cl)c1` showed a CL of 17.6 mL/min/g.
With `N#Cc1cccc(N2CCN(CCN3Cc4ccccc4C3)C2=O)c1` the CL was 1.6 mL/min/g.
With `O=C1N(CCN2Cc3ccccc3C2)CCN1c1cccc(Cl)c1` the CL was 8.9 mL/min/g.
For `CC(C)N1CCN(CCN2CCN(c3cccc(C#N)c3)C2=O)CC1`, the CL was under 0.5 mL/min/g.
